Our source for the Ki values is patent US20120115903A1, “Substituted Heteroaromatic Carboxamide and Urea Compounds as Vanilloid Receptor Ligands” (Gruenenthal GmbH, priority 2010, published 2012).

In assay [1] the target is T1, vanilloid receptor 1 (VR1/TRPV1 receptor) (Mus musculus, UniProt Q704Y3).
T1 construct: expressed in transfected cells; host or cells: CHO K1 cells (inferred: method II; method I is described for rat DRG neurons only)
Nature of the assay: FLIPR Ca2+ influx assay on vanilloid receptor 1, capsaicin stimulus (mouse). Type of assay: cell-based. The following applies: Cap = capsaicin, Ki from IC50 by Cheng-Prusoff. From the text:
The agonistic or antagonistic effect of the substances to be tested on the vanilloid receptor 1 (VR1) can also be determined using the following assay. In this assay, the influx of Ca^2+ through the channel is quantified with the aid of a Ca^2+-sensitive dye (type Fluo-4, Molecular Probes Europe BV, Leiden, the Netherlands) in a fluorescent imaging plate reader (FLIPR, Molecular Devices, Sunnyvale, USA).
Chinese hamster ovary cells (CHO K1 cells, European Collection of Cell Cultures (ECACC) United Kingdom) are stably transfected with the VR1 gene. […] The Ca^2+-dependent fluorescence is measured before and after the addition of the substances to be tested (λex wavelength=488 nm, λem=540 nm). Quantification is carried out by measuring the highest fluorescence intensity (FC, fluorescence counts) over time.
The FLIPR protocol consists of 2 substance additions. […] After 5 minutes' incubation, 100 nM of capsaicin are applied and the Ca^2+ influx is also determined. […]
Starting from the percentage displacement caused by different concentrations of the compounds to be tested of general formula I, IC50 inhibitory concentrations which cause a 50-percent displacement of capsaicin were calculated. […]
The affinity of the compounds according to the invention for the vanilloid receptor 1 (VR1/TRPV1 receptor) was determined as described hereinbefore (pharmacological methods I and II respectively). […]

Assay [2] addresses T2, vanilloid receptor 1 (VR1/TRPV1 receptor) (Homo sapiens, UniProt Q8NER1).
T2 construct: expressed in transfected cells; host or cells: CHO K1 cells (ECACC), stably transfected
Nature of the assay: FLIPR Ca2+ influx assay with CHO K1 cells transfected with the human VR1 gene, capsaicin stimulus. Type of assay: cell-based. The following applies: Cap = capsaicin (100 nM), Ki from IC50 by Cheng-Prusoff, read-out: Ki (human being) [nM] Cap. As for the experimental part:
Furthermore, preference may be given to compounds according to the invention of general formula (I) that cause a 50 percent displacement of capsaicin, which is present at a concentration of 100 nM, in a FLIPR assay with CHO K1 cells which were transfected with the human VR1 gene at a concentration of less than 2,000 nM, preferably less than 1,000 nM, particularly preferably less than 300 nM, most particularly preferably less than 100 nM, even more preferably less than 75 nM, additionally preferably less than 50 nM, most preferably less than 10 nM. In the process, the Ca^2+ influx is quantified in the FLIPR assay with the aid of a Ca^2+-sensitive dye (type Fluo-4, Molecular Probes Europe BV, Leiden, the Netherlands) in a fluorescent imaging plate reader (FLIPR, Molecular Devices, Sunnyvale, USA), as described hereinafter. The agonistic or antagonistic effect of the substances to be tested on the vanilloid receptor 1 (VR1) can also be determined using the following assay. In this assay, the influx of Ca^2+ through the channel is quantified with the aid of a Ca^2+-sensitive dye (type Fluo-4, Molecular Probes Europe BV, Leiden, the Netherlands) in a fluorescent imaging plate reader (FLIPR, Molecular Devices, Sunnyvale, USA). Chinese hamster ovary cells (CHO K1 cells, European Collection of Cell Cultures (ECACC) United Kingdom) are stably transfected with the VR1 gene. For functional testing, these cells are plated out on poly-D-lysine-coated black 96-well plates having a clear base (BD Biosciences, Heidelberg, Germany) at a density of 25,000 cells/well. The cells are incubated overnight at 37° C. and 5% CO2 in a culture medium (Ham's F12 nutrient mixture, 10% by volume of FCS (foetal calf serum), 18 μg/ml of L-proline). The next day the cells are incubated with Fluo-4 (Fluo-4 2 μM, 0.01% by volume of Pluronic F127, Molecular Probes in HBSS (Hank's buffered saline solution), Gibco Invitrogen GmbH, Karlsruhe, Germany) for 30 minutes at 37° C. Subsequently, the plates are washed three times with HBSS buffer and after further incubation for 15 minutes at RT used for Ca^2+ measurement in a FLIPR assay. The Ca^2+-dependent fluorescence is measured before and after the addition of the substances to be tested (λex wavelength=488 nm, λem=540 nm). Quantification is carried out by measuring the highest fluorescence intensity (FC, fluorescence counts) over time. The FLIPR protocol consists of 2 substance additions. First the compounds to be tested (10 μM) are pipetted onto the cells and the Ca^2+ influx is compared with the control (capsaicin 10 μM) (% activation based on the Ca^2+ signal after the addition of 10 μM of capsaicin). After 5 minutes' incubation, 100 nM of capsaicin are applied and the Ca^2+ influx is also determined. Desensitising agonists and antagonists led to suppression of the Ca^2+ influx. The % inhibition is calculated compared to the maximum achievable inhibition with 10 μM of capsaicin. Starting from the percentage displacement caused by different concentrations of the compounds to be tested of general formula I, IC50 inhibitory concentrations which cause a 50-percent displacement of capsaicin were calculated. K, values for the test substances were obtained by conversion by means of the Cheng-Prusoff equation (Cheng, Prusoff; Biochem. Pharmacol. 22, 3099-3108, 1973). The affinity of the compounds according to the invention for the vanilloid receptor 1 (VR1/TRPV1 receptor) was determined as described hereinbefore (pharmacological methods I and II respectively). The compounds according to the invention of the above-indicated formula (I) display outstanding affinity to the VR1/TRPV1 receptor (Table 1.).

T2 sequence (Q8NER1 whole entry): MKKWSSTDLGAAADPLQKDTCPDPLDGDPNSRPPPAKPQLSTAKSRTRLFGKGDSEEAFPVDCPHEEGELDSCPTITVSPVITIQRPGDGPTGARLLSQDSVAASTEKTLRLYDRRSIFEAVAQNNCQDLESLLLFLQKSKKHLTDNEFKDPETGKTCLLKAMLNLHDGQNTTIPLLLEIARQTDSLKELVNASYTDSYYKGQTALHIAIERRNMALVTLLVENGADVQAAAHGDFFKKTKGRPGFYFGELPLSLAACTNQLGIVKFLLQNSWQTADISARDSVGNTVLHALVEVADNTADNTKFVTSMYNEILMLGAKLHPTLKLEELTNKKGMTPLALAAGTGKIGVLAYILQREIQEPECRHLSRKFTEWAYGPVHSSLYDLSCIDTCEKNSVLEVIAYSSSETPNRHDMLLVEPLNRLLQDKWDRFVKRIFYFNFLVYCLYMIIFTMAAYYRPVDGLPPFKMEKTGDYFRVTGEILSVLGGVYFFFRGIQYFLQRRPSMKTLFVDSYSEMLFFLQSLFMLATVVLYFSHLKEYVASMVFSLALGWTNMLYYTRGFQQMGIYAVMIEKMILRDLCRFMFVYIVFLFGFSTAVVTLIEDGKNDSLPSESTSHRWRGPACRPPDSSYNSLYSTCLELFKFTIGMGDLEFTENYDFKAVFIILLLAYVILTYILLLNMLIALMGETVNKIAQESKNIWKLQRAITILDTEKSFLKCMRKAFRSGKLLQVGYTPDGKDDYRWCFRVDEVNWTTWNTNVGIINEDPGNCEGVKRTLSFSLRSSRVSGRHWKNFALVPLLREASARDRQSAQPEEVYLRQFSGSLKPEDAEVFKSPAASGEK
T1 sequence (Q704Y3 whole entry): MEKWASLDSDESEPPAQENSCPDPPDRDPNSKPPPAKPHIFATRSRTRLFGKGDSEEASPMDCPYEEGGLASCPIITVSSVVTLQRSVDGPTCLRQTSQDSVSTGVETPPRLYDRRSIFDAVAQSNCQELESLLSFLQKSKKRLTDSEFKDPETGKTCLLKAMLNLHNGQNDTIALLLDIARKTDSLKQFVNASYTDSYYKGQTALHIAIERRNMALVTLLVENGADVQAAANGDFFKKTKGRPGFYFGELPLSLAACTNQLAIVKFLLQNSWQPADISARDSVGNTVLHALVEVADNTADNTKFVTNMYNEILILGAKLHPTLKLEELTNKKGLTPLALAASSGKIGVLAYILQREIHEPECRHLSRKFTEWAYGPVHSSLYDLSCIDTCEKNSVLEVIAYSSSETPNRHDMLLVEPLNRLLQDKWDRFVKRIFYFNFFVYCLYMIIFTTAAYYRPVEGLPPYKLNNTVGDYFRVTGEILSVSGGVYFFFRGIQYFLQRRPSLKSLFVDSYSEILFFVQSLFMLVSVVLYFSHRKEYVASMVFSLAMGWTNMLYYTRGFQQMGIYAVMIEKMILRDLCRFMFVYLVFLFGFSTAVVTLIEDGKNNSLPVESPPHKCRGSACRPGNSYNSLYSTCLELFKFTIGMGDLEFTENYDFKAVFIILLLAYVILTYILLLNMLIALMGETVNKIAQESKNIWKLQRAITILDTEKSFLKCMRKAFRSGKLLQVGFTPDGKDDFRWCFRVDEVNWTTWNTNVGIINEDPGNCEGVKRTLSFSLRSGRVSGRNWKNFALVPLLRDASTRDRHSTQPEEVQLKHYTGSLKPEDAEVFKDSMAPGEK

The term Ki denotes the dissociation constant of the complex between target and ligand, obtained from inhibition or displacement. `Cc1cccc(-n2nc(C(F)(F)F)cc2CNC(=O)C(C)c2cn(C)c3ccc(O)cc23)c1` (stereo not shown) [Example 5, 2-(5-hydroxy-1-methyl-1H-indol-3-yl)-N-((1-m-tolyl-3-(trifluoromethyl)-1H-pyrazol-5-yl)methyl)propanamide]: the Ki is 38.5 nM in assay [1] and 0.6 nM in assay [2].

With `CC(C(=O)NCc1cc(C(F)(F)F)nn1-c1cccc(Cl)c1)c1cn(C)c2ccc(O)cc12` (stereo not shown) [Example 10, N-((1-(3-chlorophenyl)-3-(trifluoromethyl)-1H-pyrazol-5-yl)methyl)-2-(5-hydroxy-1-methyl-1H-indol-3-yl)propanamide], the results for the inhibitory constant (Ki) in assay [1] and in assay [2] were 4.8 nM and 0.4 nM, respectively.
